Results: patent US9643980B2, “Benzoxazepin oxazolidinone compounds and methods of use” (Genentech, Inc., priority 2015, dated 2017)
Like-named read-outs stand apart in the source and are kept apart here.

Tests used:
[1] = biological target: PI3Kβ (Homo sapiens, UniProt P42338); test: PI3K binding assay (lipid kinase reaction, ADP-Glo), PI3K beta; type: biochemical; conditions: Table 2A; first value of cell (ADP-Glo, Example 901)
Description: (§1) Reactions are carried out using the following conditions for each PI3K isoform as in Table 5.
(§2) All reactions are carried out at room temperature. […] The reaction is started by the addition of 2 μL ATP/MgCl2. The kinase reaction buffer contains 50 mM HEPES, 50 mM NaCl 3 mM MgCl2, 0.01% BSA, 1% DMSO, and enzyme and substrate concentrations as indicated in the above table. The reaction is stopped by the addition of 10 μL ADP-Glo reagent. Plates are read in a Perkin Elmer Envision system using luminescence mode. 10 point dose response curves are generated for each test compound. Ki values for each compound are determined using the Morrison Equation.

[2] = biological target: PI3Kδ (Homo sapiens, UniProt O00329); test: PI3K binding assay (lipid kinase reaction, ADP-Glo), PI3K delta; type: biochemical
Sequence of PI3Kδ (O00329 whole entry): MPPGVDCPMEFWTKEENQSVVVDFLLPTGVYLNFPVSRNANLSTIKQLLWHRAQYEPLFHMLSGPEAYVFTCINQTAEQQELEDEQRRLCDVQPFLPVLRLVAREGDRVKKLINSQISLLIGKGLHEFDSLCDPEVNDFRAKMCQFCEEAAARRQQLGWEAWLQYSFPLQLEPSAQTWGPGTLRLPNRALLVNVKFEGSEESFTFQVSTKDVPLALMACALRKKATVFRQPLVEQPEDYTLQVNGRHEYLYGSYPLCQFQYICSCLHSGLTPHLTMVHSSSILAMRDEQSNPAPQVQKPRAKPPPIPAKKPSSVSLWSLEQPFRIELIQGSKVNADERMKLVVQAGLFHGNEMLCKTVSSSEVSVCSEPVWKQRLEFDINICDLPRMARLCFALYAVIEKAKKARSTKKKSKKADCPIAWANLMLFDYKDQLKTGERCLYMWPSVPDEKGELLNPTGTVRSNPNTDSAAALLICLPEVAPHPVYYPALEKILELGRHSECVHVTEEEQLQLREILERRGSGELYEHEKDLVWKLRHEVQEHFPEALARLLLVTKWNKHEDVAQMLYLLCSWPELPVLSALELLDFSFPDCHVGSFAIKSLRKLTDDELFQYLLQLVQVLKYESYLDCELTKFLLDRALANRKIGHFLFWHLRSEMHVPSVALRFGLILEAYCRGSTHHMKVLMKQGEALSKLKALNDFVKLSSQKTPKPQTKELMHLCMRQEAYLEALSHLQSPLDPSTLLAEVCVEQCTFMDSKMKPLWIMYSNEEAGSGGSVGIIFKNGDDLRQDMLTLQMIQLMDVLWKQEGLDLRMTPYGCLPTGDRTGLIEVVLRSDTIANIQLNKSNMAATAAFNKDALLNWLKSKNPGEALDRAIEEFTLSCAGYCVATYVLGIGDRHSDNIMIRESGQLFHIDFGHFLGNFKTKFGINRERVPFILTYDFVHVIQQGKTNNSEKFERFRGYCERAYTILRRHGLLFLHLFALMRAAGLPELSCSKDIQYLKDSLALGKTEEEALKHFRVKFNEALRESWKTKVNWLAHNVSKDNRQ
Sequence of PI3Kδ (P27986 whole entry partner): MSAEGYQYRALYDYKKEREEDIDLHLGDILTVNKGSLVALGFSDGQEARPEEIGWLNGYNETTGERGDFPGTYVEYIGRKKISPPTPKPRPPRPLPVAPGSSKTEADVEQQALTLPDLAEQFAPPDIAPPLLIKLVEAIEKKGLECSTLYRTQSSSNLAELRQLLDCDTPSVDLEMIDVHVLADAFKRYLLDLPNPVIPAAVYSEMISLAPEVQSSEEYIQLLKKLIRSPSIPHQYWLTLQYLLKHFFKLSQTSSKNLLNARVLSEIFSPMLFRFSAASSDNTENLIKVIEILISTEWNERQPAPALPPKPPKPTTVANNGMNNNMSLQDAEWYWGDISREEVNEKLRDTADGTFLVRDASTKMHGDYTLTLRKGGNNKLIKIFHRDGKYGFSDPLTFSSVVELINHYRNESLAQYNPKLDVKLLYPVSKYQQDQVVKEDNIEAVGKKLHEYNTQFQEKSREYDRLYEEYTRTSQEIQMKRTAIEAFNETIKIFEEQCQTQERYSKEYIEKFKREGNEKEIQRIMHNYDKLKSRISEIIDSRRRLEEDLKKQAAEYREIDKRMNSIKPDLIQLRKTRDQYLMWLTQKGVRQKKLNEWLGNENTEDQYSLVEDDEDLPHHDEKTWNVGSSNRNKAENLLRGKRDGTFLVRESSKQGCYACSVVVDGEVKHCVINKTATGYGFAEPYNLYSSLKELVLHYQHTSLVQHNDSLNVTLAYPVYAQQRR
Description: as §1, §2

[3] = tested on: P-PRAS40 SW48(parental); test: Inhibition of P-PRAS40 in SW48 isogenic cells, PI3Kα wild-type (parental); conditions: Homo sapiens, SW48, 24 h, read-out: P-PRAS40 SW48(parental) EC50 (nM)
Description: The three cell lines (WT, E545K, and H1047R) are plated and assayed in parallel. The following day, test compounds are serially diluted in dimethyl sulfoxide (DMSO) and added to cells (final DMSO concentration 0.5%). Cells are then incubated for 24 hours at 37° C. and 5% CO2. […] Cell lysates are added to assay plates pre-coated with antibodies against phosphorylated PRAS40. Phosphorylated PRAS40 in samples are allowed to bind to the capture antibodies overnight at 4° C. The detection antibody (anti-total PRAS40, labeled with an electrochemiluminescent SULFO-TAG) is added to the bound lysate and incubated for 1 hour at room temperature. The MSD Read Buffer is added such that when a voltage is applied to the plate electrodes, the labels bound to the electrode surface emit light. The MSD Sector Instrument measures the intensity of the light, and quantitatively measures the amount of phosphor-PRAS40 in the sample. Percent inhibition of PRAS40 phosphorylation by varying concentrations of test compounds is calculated relative to untreated controls. EC50 values are calculated using the 4 parameter logistic nonlinear regression dose-response model.

[4] = tested on: P-PRAS40 SW48(E545K); test: Inhibition of P-PRAS40 in SW48 isogenic cells, PI3Kα mutant E545K; type: cell-based; conditions: Table 3A; for EC50: Homo sapiens, SW48, 24 hours of compound treatment, geometric mean, read-out: P-PRAS40 SW48(E545K) EC50; for Fold Selectivity for SW48(E545K) vs. SW48(parental): EC50 potency ratio, p value (Student t-Test) given
Description: (§3) All statistics were performed using KaleidaGraph Software (version 4.1.3). A Student t-Test was performed using unpaired data with equal variance to compare activity against mutant cells and wild-type cells. P<0.05 is considered to be significant.
(§4) The following assays are intended for determining the cellular potency and mutant selectivity of small molecule PI3Kα inhibitors. […] Mutant selectivity of PI3Kα inhibitors is determined by EC50 potency ratios in the WT vs. E545K cell lines and WT vs. H1047R cell lines.
(§5) The three cell lines (WT, E545K, and H1047R) are plated and assayed in parallel. The following day, test compounds are serially diluted in dimethyl sulfoxide (DMSO) and added to cells (final DMSO concentration 0.5%). […] Cell lysates are added to assay plates pre-coated with antibodies against phosphorylated PRAS40. Phosphorylated PRAS40 in samples are allowed to bind to the capture antibodies overnight at 4° C. The detection antibody (anti-total PRAS40, labeled with an electrochemiluminescent SULFO-TAG) is added to the bound lysate and incubated for 1 hour at room temperature. The MSD Read Buffer is added such that when a voltage is applied to the plate electrodes, the labels bound to the electrode surface emit light. The MSD Sector Instrument measures the intensity of the light, and quantitatively measures the amount of phosphor-PRAS40 in the sample. Percent inhibition of PRAS40 phosphorylation by varying concentrations of test compounds is calculated relative to untreated controls. EC50 values are calculated using the 4 parameter logistic nonlinear regression dose-response model.

[5] = biological target: PI3Kα (Homo sapiens, UniProt P42336); test: PI3K binding assay (lipid kinase reaction, ADP-Glo), PI3K alpha; type: biochemical; conditions: for Ki: first value of cell (ADP-Glo, Example 901), read-out: PI3Kα Ki
Sequence of PI3Kα (P42336 whole entry): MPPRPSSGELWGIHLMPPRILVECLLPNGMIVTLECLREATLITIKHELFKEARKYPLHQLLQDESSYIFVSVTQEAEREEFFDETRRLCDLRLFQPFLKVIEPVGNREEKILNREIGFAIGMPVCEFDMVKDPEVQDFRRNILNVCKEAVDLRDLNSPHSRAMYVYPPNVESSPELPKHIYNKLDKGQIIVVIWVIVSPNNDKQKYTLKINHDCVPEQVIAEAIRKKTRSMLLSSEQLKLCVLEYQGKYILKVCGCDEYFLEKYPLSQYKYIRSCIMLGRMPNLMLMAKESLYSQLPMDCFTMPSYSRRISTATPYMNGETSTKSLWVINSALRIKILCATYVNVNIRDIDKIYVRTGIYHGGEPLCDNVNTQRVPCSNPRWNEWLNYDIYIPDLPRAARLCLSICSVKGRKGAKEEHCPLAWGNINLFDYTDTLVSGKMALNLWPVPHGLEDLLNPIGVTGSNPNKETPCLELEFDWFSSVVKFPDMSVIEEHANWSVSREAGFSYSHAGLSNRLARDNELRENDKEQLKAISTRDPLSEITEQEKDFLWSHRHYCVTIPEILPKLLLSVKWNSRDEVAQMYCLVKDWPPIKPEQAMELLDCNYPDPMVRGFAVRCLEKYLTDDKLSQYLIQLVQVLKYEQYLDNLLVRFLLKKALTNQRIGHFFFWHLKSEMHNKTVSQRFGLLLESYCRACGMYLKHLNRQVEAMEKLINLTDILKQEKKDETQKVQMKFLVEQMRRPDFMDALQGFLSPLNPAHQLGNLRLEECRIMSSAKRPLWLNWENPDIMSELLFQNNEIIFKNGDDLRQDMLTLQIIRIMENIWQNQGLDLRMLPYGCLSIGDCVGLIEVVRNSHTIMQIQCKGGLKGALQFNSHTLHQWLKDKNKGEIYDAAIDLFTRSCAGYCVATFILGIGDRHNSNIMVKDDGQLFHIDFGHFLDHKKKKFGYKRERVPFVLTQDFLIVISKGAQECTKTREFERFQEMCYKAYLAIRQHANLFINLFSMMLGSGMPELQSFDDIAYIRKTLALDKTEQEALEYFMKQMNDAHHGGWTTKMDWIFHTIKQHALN
Sequence of PI3Kα (P27986 whole entry partner): as the sequence (P27986 whole entry partner) above
Description: as §1, §2

[6] = biological target: PI3Kγ (Homo sapiens, UniProt P48736); test: PI3K binding assay (lipid kinase reaction, ADP-Glo), PI3K gamma; type: biochemical; conditions: Table 2A; first value of cell (ADP-Glo, Example 901)
Sequence of PI3Kγ (P48736 whole entry): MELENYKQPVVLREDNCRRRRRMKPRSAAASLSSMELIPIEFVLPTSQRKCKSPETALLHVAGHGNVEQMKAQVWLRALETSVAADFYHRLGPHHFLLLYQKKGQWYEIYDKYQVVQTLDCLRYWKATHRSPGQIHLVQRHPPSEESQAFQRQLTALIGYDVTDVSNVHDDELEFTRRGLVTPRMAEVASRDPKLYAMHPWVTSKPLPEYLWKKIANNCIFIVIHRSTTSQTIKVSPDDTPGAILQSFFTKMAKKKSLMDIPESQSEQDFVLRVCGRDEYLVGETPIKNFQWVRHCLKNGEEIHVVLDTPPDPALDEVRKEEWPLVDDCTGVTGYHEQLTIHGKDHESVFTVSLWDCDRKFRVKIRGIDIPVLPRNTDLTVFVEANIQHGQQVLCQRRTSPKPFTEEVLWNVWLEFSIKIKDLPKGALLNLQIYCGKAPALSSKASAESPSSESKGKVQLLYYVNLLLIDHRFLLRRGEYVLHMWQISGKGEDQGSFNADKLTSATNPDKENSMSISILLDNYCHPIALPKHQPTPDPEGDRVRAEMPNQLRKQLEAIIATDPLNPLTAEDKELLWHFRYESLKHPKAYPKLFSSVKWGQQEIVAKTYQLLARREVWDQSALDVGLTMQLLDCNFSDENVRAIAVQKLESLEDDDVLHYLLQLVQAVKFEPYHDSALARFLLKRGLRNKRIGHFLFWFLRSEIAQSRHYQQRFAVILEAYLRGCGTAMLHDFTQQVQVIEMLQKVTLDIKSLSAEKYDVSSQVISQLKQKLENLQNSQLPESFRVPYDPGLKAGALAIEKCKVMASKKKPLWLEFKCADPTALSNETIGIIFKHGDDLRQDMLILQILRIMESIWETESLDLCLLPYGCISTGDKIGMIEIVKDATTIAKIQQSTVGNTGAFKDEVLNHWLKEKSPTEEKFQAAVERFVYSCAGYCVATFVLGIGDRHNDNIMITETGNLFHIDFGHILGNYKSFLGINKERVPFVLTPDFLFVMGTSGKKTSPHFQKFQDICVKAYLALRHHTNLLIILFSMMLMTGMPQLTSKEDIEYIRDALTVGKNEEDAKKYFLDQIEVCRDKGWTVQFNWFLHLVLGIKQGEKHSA
Description: as §1, §2

[7] = tested on: P-PRAS40 SW48(H1047R); test: Inhibition of P-PRAS40 in SW48 isogenic cells, PI3Kα mutant H1047R; type: cell-based; conditions: Table 3A; for EC50: Homo sapiens, SW48, 24 hours of compound treatment, geometric mean, read-out: P-PRAS40 SW48(H1047R) EC50; for Fold Selectivity for SW48(H1047R) vs. SW48(parental): EC50 potency ratio, p value (Student t-Test) given
Description: as §3, §4, §5

[8] = tested on: KPL4 cells (PI3Kα mutant H1047R); test: In vitro cell viability assay (Cell Titer-Glo), KPL4
Description: (§6) Cells were seeded (1,500 per well) in 384-well plates for 16 h. On day 2, nine serial 1:3 compound dilutions were made in DMSO in a 96-well plate. The compounds were then further diluted into growth media using a Rapidplate robot (Zymark Corp.). The diluted compounds were then added to quadruplicate wells in the 384-well cell plates and incubated at 37° C. and 5% CO2. After 4 d, relative numbers of viable cells were measured by luminescence using Cell Titer-Glo (Promega) according to the manufacturer's instructions and read on a Wallac Multilabel Reader (Perkin-Elmer). EC50 values were calculated using Prism 6.0 software (GraphPad).

[9] = tested on: HCC1954 cells (PI3Kα mutant H1047R); test: In vitro cell viability assay (Cell Titer-Glo), HCC1954
Description: as §6

[10] = tested on: MCF7 cells (PI3Kα mutant E545K); test: In vitro cell viability assay (Cell Titer-Glo), MCF7
Description: as §6

[11] = Table 2A, first value of cell (ADP-Glo, Example 901)
[12] = Table 2A, selectivity ratio (fold)
[13] = KPL4, 96 h, read-out: KPL4 antiproliferative EC50 (μM)

Sequence of PI3Kβ (P42338 whole entry, canonical isoform): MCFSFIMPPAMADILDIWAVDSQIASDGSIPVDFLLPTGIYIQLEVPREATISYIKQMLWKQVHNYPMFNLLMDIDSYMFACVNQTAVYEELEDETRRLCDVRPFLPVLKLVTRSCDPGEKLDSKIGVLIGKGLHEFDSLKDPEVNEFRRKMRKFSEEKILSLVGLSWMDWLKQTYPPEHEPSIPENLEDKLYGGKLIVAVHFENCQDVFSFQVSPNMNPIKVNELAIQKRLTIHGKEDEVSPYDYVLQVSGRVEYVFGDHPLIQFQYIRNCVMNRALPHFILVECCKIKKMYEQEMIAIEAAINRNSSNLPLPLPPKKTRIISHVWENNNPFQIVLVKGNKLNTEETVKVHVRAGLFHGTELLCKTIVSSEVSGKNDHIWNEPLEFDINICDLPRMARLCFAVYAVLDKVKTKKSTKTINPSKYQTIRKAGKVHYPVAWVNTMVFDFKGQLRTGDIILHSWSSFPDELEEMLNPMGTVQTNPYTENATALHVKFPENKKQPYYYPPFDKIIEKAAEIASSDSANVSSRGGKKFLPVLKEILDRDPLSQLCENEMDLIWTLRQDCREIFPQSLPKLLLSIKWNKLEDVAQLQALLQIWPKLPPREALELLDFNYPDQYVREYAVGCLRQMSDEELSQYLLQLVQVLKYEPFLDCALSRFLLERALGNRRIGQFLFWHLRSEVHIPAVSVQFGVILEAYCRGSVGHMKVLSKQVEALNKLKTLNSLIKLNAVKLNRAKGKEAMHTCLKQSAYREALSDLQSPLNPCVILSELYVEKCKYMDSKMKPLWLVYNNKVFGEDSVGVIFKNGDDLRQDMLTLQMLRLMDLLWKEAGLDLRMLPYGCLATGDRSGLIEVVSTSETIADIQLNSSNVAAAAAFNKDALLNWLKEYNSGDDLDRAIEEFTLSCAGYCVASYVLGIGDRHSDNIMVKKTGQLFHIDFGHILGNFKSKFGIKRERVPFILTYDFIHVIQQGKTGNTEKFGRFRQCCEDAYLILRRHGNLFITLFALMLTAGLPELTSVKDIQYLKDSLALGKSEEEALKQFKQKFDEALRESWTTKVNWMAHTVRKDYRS
Sequence of PI3Kβ (P27986 whole entry partner, canonical isoform): as the sequence (P27986 whole entry partner) above

SMILES	Ki [1] [nM]	Ki [2, 11] [nM]	EC50 [3] [nM]	EC50 [4] [nM]	Fold Selectivity for SW48(E545K) vs. SW48(parental) [4]	Ki ([5]; Table 2A) [nM]	Selectivity for PI3Kα vs. PI3K-β [5, 12]	Selectivity for PI3Kα vs. PI3Kγ [5, 12]	Selectivity for PI3Kα vs. PI3Kδ [5, 12]	Ki [6] [nM]	EC50 [7] [nM]	Fold Selectivity for SW48(H1047R) vs. SW48(parental) [7]	Selectivity for PI3Kα vs. PI3K-β [5]	Selectivity for PI3Kα vs. PI3Kγ [5]	Selectivity for PI3Kα vs. PI3Kδ [5]	further results
C[C@H](Oc1ccc2c(c1)OCCn1cc(N3C(=O)OC[C@H]3C(F)F)nc1-2)C(N)=O [Compound 107, (S)-2-((2-((S)-4-(Difluoromethyl)-2-oxooxazolidin-3-yl)-5,6-dihydrobenzo[f]imidazo[1,2-d][1,4]oxazepin-9-yl)oxy)propanamide]	341	44.2	69.2	23.4	3.0 (p < 0.001)	0.853	400	159	52	136	25.6	2.7 (p < 0.001)				
NC(=O)[C@@H]1CCCN1c1ccc2c(c1)OCCn1cc(N3C(=O)OC[C@H]3C(F)F)nc1-2 [Compound 106, (S)-1-(2-((S)-4-(Difluoromethyl)-2-oxooxazolidin-3-yl)-5,6-dihydrobenzo[f]imidazo[1,2-d][1,4]oxazepin-9-yl)pyrrolidine-2-carboxamide]	53.8	1.82	5.5	2.7	2.1 (p < 0.001)	0.053	1008	384	34	20.4	2.9	1.9 (p < 0.001)				
CC[C@@H]1COC(=O)N1c1cn2c(n1)-c1ccc(O[C@@H](C)C(N)=O)cc1OCC2 [Compound 104, (S)-2-((2-((R)-4-Ethyl-2-oxooxazolidin-3-yl)-5,6-dihydrobenzo[f]imidazo[1,2-d][1,4]oxazepin-9-yl)oxy)propanamide]	847	50	335	115	2.5 (p = 0.003)	2.69				287	109	2.6 (p = 0.003)	315	107	19	
CC(C)n1ncnc1-c1cn2c(n1)-c1ccc(O[C@@H](C)C(N)=O)cc1OCC2 [Compound 436, reference compound]																EC50 [8, 13]: 0.05 µM; Ki ([2]; Table 2B comparator compounds, first value of cell (ADP-Glo)): 7.72 nM
C[C@H](Oc1ccc2c(c1)OCCn1cc(N3C(=O)OC[C@H]3CF)nc1-2)C(N)=O [Compound 109, (S)-2-((2-((S)-4-(Fluoromethyl)-2-oxooxazolidin-3-yl)-5,6-dihydrobenzo[f]imidazo[1,2-d][1,4]oxazepin-9-yl)oxy)propanamide]	376	30.3	74	33.2	2.2 (p = 0.002)	0.993				126	28	2.6 (p < 0.001)	379	127	31	
NC(=O)[C@@H]1CCCN1c1ccc2c(c1)OCCn1cc(N3C(=O)OC[C@H]3CF)nc1-2 [Compound 108, (S)-1-(2-((S)-4-(Fluoromethyl)-2-oxooxazolidin-3-yl)-5,6-dihydrobenzo[f]imidazo[1,2-d][1,4]oxazepin-9-yl)pyrrolidine-2-carboxamide]	60.8	1.97	6.2	2.9	2.1 (p < 0.001))	0.043	1421	557	46	23.9	2.6	2.2 (p < 0.001)				
C[C@H](Oc1ccc2c(c1)OCCn1cc(N3C(=O)OC[C@H]3C(F)(F)F)nc1-2)C(N)=O [Compound 105, (S)-2-((2-((S)-2-Oxo-4-(trifluoromethyl)oxazolidin-3-yl)-5,6-dihydrobenzo[f]imidazo[1,2-d][1,4]oxazepin-9-yl)oxy)propanamide]	661	42.2	199	62.9	3.2 (p = 0.012)	2.75				255	53.6	3.7 (p = 0.008)	241	93	15	EC50 [8, 13]: 0.008 µM; EC50 ([9]; Homo sapiens, HCC1954, 96 h, read-out: HCC1954 antiproliferative EC50 (μM)): 0.005 µM; EC50 ([10]; Homo sapiens, MCF7, 96 h, read-out: MCF7 antiproliferative EC50 (μM)): 0.05 µM
CS(=O)(=O)N1CCN(Cc2cc3nc(-c4cccc5[nH]ncc45)nc(N4CCOCC4)c3s2)CC1 [pictilisib, 4-(2-(1H-indazol-4-yl)-6-((4-(methylsulfonyl)piperazin-1-yl)methyl)thieno[3,2-d]pyrimidin-4-yl)morpholine, reference compound]																EC50 ([8]; read-out: KPL4 antiproliferative EC50, 4 d incubation, Cell Titer-Glo): 0.21 µM; EC50 ([9]; read-out: HCC1954 antiproliferative EC50, 4 d incubation, Cell Titer-Glo): 0.75 µM; EC50 ([10]; read-out: MCF7 antiproliferative EC50, 4 d incubation, Cell Titer-Glo): 0.12 µM
